Results taken from the supplement of paper PMC8882468.
± gives the standard deviation of the averaged measurements.

System: HCI-002 (organoid from a triple-negative breast cancer xenograft)
Experiment: CTG-3D luminescence at 96 h relative to day-0 seeding control (ratio to day 0); higher = more growth / less cytotoxicity; PDxO 3D drug screen, 96 h, CTG-3D normalised to day-0 seeding control.
Details: 625 fM; days in culture: 62

Point of comparison: `O=C(c1ccc(F)c(F)c1Nc1ccc(I)cc1F)N1CC(O)([C@@H]2CCCCN2)C1` [cobimetinib], “CTG-3D luminescence at 96 h” value 3.02. Against it:
- C[C@H](NC(=O)CCC(F)(F)F)C(=O)N[C@@H]1C(=O)N(CCO)c2ncccc2-c2ccccc21 [crenigacestat] — lower, 2.91
- Cc1cc(Nc2ncc(Cl)c(Nc3ccccc3S(=O)(=O)C(C)C)n2)c(OC(C)C)cc1C1CCNCC1 [ceritinib] — higher, 3.15
- CS(=O)(=O)c1ccc(C(=O)Nc2ccc(Cl)c(-c3ccccn3)c2)c(Cl)c1 [vismodegib] — lower, 3.01
- NC(=O)c1cccc2cn(-c3ccc([C@@H]4CCCNC4)cc3)nc12 [niraparib] — higher, 3.34

Same assay, conditions: 625 fM; days in culture: 82

Point of comparison: `CS(=O)(=O)c1ccc(C(=O)Nc2ccc(Cl)c(-c3ccccn3)c2)c(Cl)c1` [vismodegib], “CTG-3D luminescence at 96 h” value 2.86. Against it:
- C[C@@H]1COCCN1c1cc(C2([S@](C)(=N)=O)CC2)nc(-c2cc[nH]c3nccc2-3)n1 [ceralasertib] — lower, 2.8
- CCN1CCN(Cc2ccc(Nc3ncc(F)c(-c4cc(F)c5nc(C)n(C(C)C)c5c4)n3)nc2)CC1 [abemaciclib] — lower, 2.83
- NC1(C(=O)N[C@@H](CCO)c2ccc(Cl)cc2)CCN(c2nc[nH]c3nccc2-3)CC1 [capivasertib] — lower, 2.8
- CC(C)n1nc(-c2ccc3oc(N)nc3c2)c2c(N)ncnc21 [sapanisertib] — higher, 2.93
- O=C(c1ccc(F)c(F)c1Nc1ccc(I)cc1F)N1CC(O)([C@@H]2CCCCN2)C1 [cobimetinib] — higher, 3.03
- C[C@H](NC(=O)CCC(F)(F)F)C(=O)N[C@@H]1C(=O)N(CCO)c2ncccc2-c2ccccc21 [crenigacestat] — lower, 2.76
- Cc1cc(Nc2ncc(Cl)c(Nc3ccccc3S(=O)(=O)C(C)C)n2)c(OC(C)C)cc1C1CCNCC1 [ceritinib] — lower, 2.72
- NC(=O)c1cccc2cn(-c3ccc([C@@H]4CCCNC4)cc3)nc12 [niraparib] — lower, 2.77

Same assay, conditions: 625 fM; days in culture: 91

Point of comparison: `CC(C)n1nc(-c2ccc3oc(N)nc3c2)c2c(N)ncnc21` [sapanisertib], “CTG-3D luminescence at 96 h” value 4.41. Against it:
- C[C@@H]1COCCN1c1cc(C2([S@](C)(=N)=O)CC2)nc(-c2cc[nH]c3nccc2-3)n1 [ceralasertib] — lower, 4.14
- CCN1CCN(Cc2ccc(Nc3ncc(F)c(-c4cc(F)c5nc(C)n(C(C)C)c5c4)n3)nc2)CC1 [abemaciclib] — lower, 3.9
- NC1(C(=O)N[C@@H](CCO)c2ccc(Cl)cc2)CCN(c2nc[nH]c3nccc2-3)CC1 [capivasertib] — lower, 4
- O=C(c1ccc(F)c(F)c1Nc1ccc(I)cc1F)N1CC(O)([C@@H]2CCCCN2)C1 [cobimetinib] — lower, 3.97
- C[C@H](NC(=O)CCC(F)(F)F)C(=O)N[C@@H]1C(=O)N(CCO)c2ncccc2-c2ccccc21 [crenigacestat] — lower, 3.82
- Cc1cc(Nc2ncc(Cl)c(Nc3ccccc3S(=O)(=O)C(C)C)n2)c(OC(C)C)cc1C1CCNCC1 [ceritinib] — lower, 4.18
- CS(=O)(=O)c1ccc(C(=O)Nc2ccc(Cl)c(-c3ccccn3)c2)c(Cl)c1 [vismodegib] — lower, 2.53
- NC(=O)c1cccc2cn(-c3ccc([C@@H]4CCCNC4)cc3)nc12 [niraparib] — lower, 2.66

Same assay, conditions: 625 fM; days in culture: 191

Point of comparison: `Cc1cc(Nc2ncc(Cl)c(Nc3ccccc3S(=O)(=O)C(C)C)n2)c(OC(C)C)cc1C1CCNCC1` [ceritinib], “CTG-3D luminescence at 96 h” value 2.72. Against it:
- C[C@@H]1COCCN1c1cc(C2([S@](C)(=N)=O)CC2)nc(-c2cc[nH]c3nccc2-3)n1 [ceralasertib] — lower, 2.6
- CCN1CCN(Cc2ccc(Nc3ncc(F)c(-c4cc(F)c5nc(C)n(C(C)C)c5c4)n3)nc2)CC1 [abemaciclib] — lower, 2.57
- NC1(C(=O)N[C@@H](CCO)c2ccc(Cl)cc2)CCN(c2nc[nH]c3nccc2-3)CC1 [capivasertib] — lower, 2.31
- CC(C)n1nc(-c2ccc3oc(N)nc3c2)c2c(N)ncnc21 [sapanisertib] — lower, 2.61
- O=C(c1ccc(F)c(F)c1Nc1ccc(I)cc1F)N1CC(O)([C@@H]2CCCCN2)C1 [cobimetinib] — lower, 2.65
- C[C@H](NC(=O)CCC(F)(F)F)C(=O)N[C@@H]1C(=O)N(CCO)c2ncccc2-c2ccccc21 [crenigacestat] — lower, 2.36
- CS(=O)(=O)c1ccc(C(=O)Nc2ccc(Cl)c(-c3ccccn3)c2)c(Cl)c1 [vismodegib] — higher, 3.41
- NC(=O)c1cccc2cn(-c3ccc([C@@H]4CCCNC4)cc3)nc12 [niraparib] — higher, 3.21

Same assay, conditions: 625 fM; days in culture: 209

Point of comparison: `NC1(C(=O)N[C@@H](CCO)c2ccc(Cl)cc2)CCN(c2nc[nH]c3nccc2-3)CC1` [capivasertib], “CTG-3D luminescence at 96 h” value 2.39. Against it:
- C[C@@H]1COCCN1c1cc(C2([S@](C)(=N)=O)CC2)nc(-c2cc[nH]c3nccc2-3)n1 [ceralasertib] — lower, 2.27
- CCN1CCN(Cc2ccc(Nc3ncc(F)c(-c4cc(F)c5nc(C)n(C(C)C)c5c4)n3)nc2)CC1 [abemaciclib] — lower, 2.36
- CC(C)n1nc(-c2ccc3oc(N)nc3c2)c2c(N)ncnc21 [sapanisertib] — lower, 2.18
- O=C(c1ccc(F)c(F)c1Nc1ccc(I)cc1F)N1CC(O)([C@@H]2CCCCN2)C1 [cobimetinib] — higher, 2.4
- C[C@H](NC(=O)CCC(F)(F)F)C(=O)N[C@@H]1C(=O)N(CCO)c2ncccc2-c2ccccc21 [crenigacestat] — lower, 2.29
- Cc1cc(Nc2ncc(Cl)c(Nc3ccccc3S(=O)(=O)C(C)C)n2)c(OC(C)C)cc1C1CCNCC1 [ceritinib] — lower, 2.35
- CS(=O)(=O)c1ccc(C(=O)Nc2ccc(Cl)c(-c3ccccn3)c2)c(Cl)c1 [vismodegib] — higher, 2.71
- NC(=O)c1cccc2cn(-c3ccc([C@@H]4CCCNC4)cc3)nc12 [niraparib] — higher, 2.86

Same assay, conditions: 625 fM; days in culture: 227

Point of comparison: `NC1(C(=O)N[C@@H](CCO)c2ccc(Cl)cc2)CCN(c2nc[nH]c3nccc2-3)CC1` [capivasertib], “CTG-3D luminescence at 96 h” value 6.21. Against it:
- C[C@@H]1COCCN1c1cc(C2([S@](C)(=N)=O)CC2)nc(-c2cc[nH]c3nccc2-3)n1 [ceralasertib] — lower, 6.05
- CCN1CCN(Cc2ccc(Nc3ncc(F)c(-c4cc(F)c5nc(C)n(C(C)C)c5c4)n3)nc2)CC1 [abemaciclib] — lower, 5.64
- CC(C)n1nc(-c2ccc3oc(N)nc3c2)c2c(N)ncnc21 [sapanisertib] — lower, 5.6
- O=C(c1ccc(F)c(F)c1Nc1ccc(I)cc1F)N1CC(O)([C@@H]2CCCCN2)C1 [cobimetinib] — lower, 5.77
- C[C@H](NC(=O)CCC(F)(F)F)C(=O)N[C@@H]1C(=O)N(CCO)c2ncccc2-c2ccccc21 [crenigacestat] — lower, 4.95
- Cc1cc(Nc2ncc(Cl)c(Nc3ccccc3S(=O)(=O)C(C)C)n2)c(OC(C)C)cc1C1CCNCC1 [ceritinib] — higher, 7.25
- CS(=O)(=O)c1ccc(C(=O)Nc2ccc(Cl)c(-c3ccccn3)c2)c(Cl)c1 [vismodegib] — lower, 5.19
- NC(=O)c1cccc2cn(-c3ccc([C@@H]4CCCNC4)cc3)nc12 [niraparib] — lower, 5.51

System: HCI-017.E2 (organoid from an ER-positive breast cancer xenograft)
Experiment: as above
Details: 12.5 pM

Point of comparison: `CS(=O)(=O)c1ccc(C(=O)Nc2ccc(Cl)c(-c3ccccn3)c2)c(Cl)c1` [vismodegib], “CTG-3D luminescence at 96 h” value 1.53 ± 0.18. Against it:
- C[C@@H]1COCCN1c1cc(C2([S@](C)(=N)=O)CC2)nc(-c2cc[nH]c3nccc2-3)n1 [ceralasertib] — within error, 1.72 ± 0.058
- CCN1CCN(Cc2ccc(Nc3ncc(F)c(-c4cc(F)c5nc(C)n(C(C)C)c5c4)n3)nc2)CC1 [abemaciclib] — higher, 1.858 ± 0.013
- NC1(C(=O)N[C@@H](CCO)c2ccc(Cl)cc2)CCN(c2nc[nH]c3nccc2-3)CC1 [capivasertib] — within error, 1.91 ± 0.24
- CC(C)n1nc(-c2ccc3oc(N)nc3c2)c2c(N)ncnc21 [sapanisertib] — within error, 1.69 ± 0.028
- O=C(c1ccc(F)c(F)c1Nc1ccc(I)cc1F)N1CC(O)([C@@H]2CCCCN2)C1 [cobimetinib] — within error, 1.77 ± 0.36
- C[C@H](NC(=O)CCC(F)(F)F)C(=O)N[C@@H]1C(=O)N(CCO)c2ncccc2-c2ccccc21 [crenigacestat] — higher, 1.98 ± 0.17
- Cc1cc(Nc2ncc(Cl)c(Nc3ccccc3S(=O)(=O)C(C)C)n2)c(OC(C)C)cc1C1CCNCC1 [ceritinib] — within error, 1.94 ± 0.52
- NC(=O)c1cccc2cn(-c3ccc([C@@H]4CCCNC4)cc3)nc12 [niraparib] — higher, 1.823 ± 0.015

Same assay, conditions: 12.5 pM; days in culture: 85

Point of comparison: `CC(C)n1nc(-c2ccc3oc(N)nc3c2)c2c(N)ncnc21` [sapanisertib], “CTG-3D luminescence at 96 h” value 2.96. Against it:
- C[C@@H]1COCCN1c1cc(C2([S@](C)(=N)=O)CC2)nc(-c2cc[nH]c3nccc2-3)n1 [ceralasertib] — higher, 3.08
- CCN1CCN(Cc2ccc(Nc3ncc(F)c(-c4cc(F)c5nc(C)n(C(C)C)c5c4)n3)nc2)CC1 [abemaciclib] — lower, 2.84
- NC1(C(=O)N[C@@H](CCO)c2ccc(Cl)cc2)CCN(c2nc[nH]c3nccc2-3)CC1 [capivasertib] — lower, 2.33
- O=C(c1ccc(F)c(F)c1Nc1ccc(I)cc1F)N1CC(O)([C@@H]2CCCCN2)C1 [cobimetinib] — higher, 3.27
- C[C@H](NC(=O)CCC(F)(F)F)C(=O)N[C@@H]1C(=O)N(CCO)c2ncccc2-c2ccccc21 [crenigacestat] — lower, 2.43
- Cc1cc(Nc2ncc(Cl)c(Nc3ccccc3S(=O)(=O)C(C)C)n2)c(OC(C)C)cc1C1CCNCC1 [ceritinib] — lower, 2.65
- CS(=O)(=O)c1ccc(C(=O)Nc2ccc(Cl)c(-c3ccccn3)c2)c(Cl)c1 [vismodegib] — lower, 2.49
- NC(=O)c1cccc2cn(-c3ccc([C@@H]4CCCNC4)cc3)nc12 [niraparib] — lower, 2.25

Same assay, conditions: 0.00025 µM

Point of comparison: `NC(=O)c1cccc2cn(-c3ccc([C@@H]4CCCNC4)cc3)nc12` [niraparib], “CTG-3D luminescence at 96 h” value 1.66 ± 0.039. Against it:
- C[C@@H]1COCCN1c1cc(C2([S@](C)(=N)=O)CC2)nc(-c2cc[nH]c3nccc2-3)n1 [ceralasertib] — higher, 2.28 ± 0.099
- CCN1CCN(Cc2ccc(Nc3ncc(F)c(-c4cc(F)c5nc(C)n(C(C)C)c5c4)n3)nc2)CC1 [abemaciclib] — higher, 1.97 ± 0.15
- NC1(C(=O)N[C@@H](CCO)c2ccc(Cl)cc2)CCN(c2nc[nH]c3nccc2-3)CC1 [capivasertib] — higher, 2.1835 ± 0.00074
- CC(C)n1nc(-c2ccc3oc(N)nc3c2)c2c(N)ncnc21 [sapanisertib] — higher, 2.18 ± 0.25
- O=C(c1ccc(F)c(F)c1Nc1ccc(I)cc1F)N1CC(O)([C@@H]2CCCCN2)C1 [cobimetinib] — higher, 2.11 ± 0.29
- C[C@H](NC(=O)CCC(F)(F)F)C(=O)N[C@@H]1C(=O)N(CCO)c2ncccc2-c2ccccc21 [crenigacestat] — higher, 2.37 ± 0.17
- Cc1cc(Nc2ncc(Cl)c(Nc3ccccc3S(=O)(=O)C(C)C)n2)c(OC(C)C)cc1C1CCNCC1 [ceritinib] — higher, 2.16 ± 0.13
- CS(=O)(=O)c1ccc(C(=O)Nc2ccc(Cl)c(-c3ccccn3)c2)c(Cl)c1 [vismodegib] — higher, 1.93 ± 0.17
